# According to US10391196B2, “Prefabricated alginate-drug bandages” (President and Fellows of Harvard College, priority 2013, dated 2019):
# “Also recorded” adds a separate entry of the source.
# Tests used:
# [1] = Substance P release from alginate bandage sheets in PBS, measured by ELISA; type: physicochemical; settings: 2% (w/v) and 4% (w/v) bandaging sheets; 8 mm diameter, 2 mm thick sample in 2 mls PBS
# Experimental: The release was performed by placing the bandage sample of 8 mm diameter and 2 mm thickness in 2 mls of PBS and moving it to a new solution at defined time intervals. The release was examined using a commercially available ELISA assay. […] The sheets incorporate either 32 μg or 64 μg of Substance P with a given processing loss (Sample size n=3 per time point). Small molecule compounds (less than 1000 daltons) are typically added to the composition in a volume of 250 μl for a dressing that is about 12 mm in diameter and 2 mm thick. Thus, substance P was added at 128 μg/ml at the low concentration and 256 μg/ml at the higher concentration. Actual clinical doses are the same or similar. Since small molecules may diffuse out of the dressing quickly, it is advantageous for small molecules to have an affinity for the alginate, e.g., since alginate is negatively charged, positively charged small molecule drugs elute at a clinically acceptable and beneficial rate (and consistent with standard practice for changing of wound dressings). For example, substance P is slightly positively charged and is therefore attracted to the alginate. Charge is less or not relevant for larger molecules, e.g., BSA. Generally, the dose is determined based on the therapeutic dose of the drug. For example, VEGF is administered to the dressing at about 50 μg/ml (3 μg in 60 μl of liquid).
# [2] = Release of model drugs from 4% (w/v) alginate pieces; type: physicochemical; settings: 4% (w/v) alginate pieces 8 mm diameter, 2 mm thick, cross-linked 15 minutes
# Experimental: Drug release was recorded for 4% (w/v) alginate pieces 8 mm in diameter and 2 mm in thickness that were cross-linked for 15 minutes. […] (Sample size of study n=3 per time point).
Compound,duration of sustained release of the peptide from the bandage [1],release profile from the alginate dressing material [2],loss during wetting step [2] [%]
Arg-Pro-Lys-Pro-Gln-Gln-Phe-Phe-Gly-Leu-Met [Substance P],at least 3 days,,
"O=C1c2c(O)ccc(O)c2C(=O)c2c(NCCNCCO)ccc(NCCNCCO)c21 [mitoxantrone, Mitoxantrone]",,"sustained release from the scaffold, which is still ongoing at the termination of the experiment",
"Cc1cc(-c2ccc(/N=N/c3c(S(=O)(=O)O)cc4cc(S(=O)(=O)O)cc(N)c4c3O)c(C)c2)ccc1/N=N/c1c(S(=O)(=O)O)cc2cc(S(=O)(=O)O)cc(N)c2c1O [trypan blue dye, Trypan blue]",,lost very rapidly; also recorded: the majority within one day,24
